# According to patent US20240245677A1, “SELECTED COMPOUNDS FOR TARGETED DEGRADATION OF BRD9” (C4 THERAPEUTICS, INC., priority 2021, published 2024):
# Tests used:
# [1] = biological target: T1, IKZF1 (Homo sapiens, UniProt Q13422+Q96SW2); assay: IKZF1 HiBiT degradation assay in NCIH929.11 cells; assay type: cell-based
# T1 construct: CRISPR-edited to endogenously express HiBiT tagged IKZF1; host or cells: NCIH929.11
# [2] = Crystallization by vapor diffusion; assay type: physicochemical
# Method: Based on approximate solubility results, about 20 mg of Compound 1 free form Pattern E was dissolved in the minimal amount of good solvent in 2 mL glass vial without lid. Then the 2 mL lid less vial was placed to 8 mL vial. To the 8 mL vial was added anti-solvent. Then the 8 mL vial was capped and placed at ambient condition. Precipitates were collected by centrifugation filtration through a 0.45 μm nylon membrane filter at 14,000 rpm for 5 min. Solid parts (wet cakes) were investigated by XRPD.
# [3] = Human Hepatocyte Stability Assay; assay type: in vitro ADME; details: cryopreserved hepatocytes
# Method: (§1) The metabolic stability of Compound 1 was evaluated using cryopreserved hepatocytes from mice, rats, dogs, cynomolgus monkeys, and humans.
# (§2) 50 μL of 1 mM intermediate solutions for each test compound was prepared by adding 5 μL of 10 mM stock solution to 45 μL of a 1:1 mixture of water and acetonitrile. A 2 μM working stocks for each test compound were prepared in incubation media, InvitroGRO™ KHB (Bio IVT, Westbury, NY, USA), by adding 2 μL of 1 mM intermediate stock to 998 μL of incubation media.
# (§3) To thaw the hepatocytes, InvitroGRO™ HT thawing medium (BioIVT, Westbury, NY, USA) was prewarmed to 37° C., and 48 mL of warmed thawing medium was transferred to a sterile 50 mL conical tube. The hepatocyte vial was removed from the liquid nitrogen Dewar, and gently thawed in a water bath at 37° C. for 1-2 minutes, then the contents of the vial were emptied into a conical tube with prewarmed InvitroGRO HT medium. 1 mL of prewarmed InvitroGRO HT medium was added to each emptied hepatocyte vial to resuspend any remaining cells, and the contents were pipetted into the hepatocyte suspension. The tube containing the hepatocyte suspension was centrifuged at 50*g for 5 minutes. The supernatant was removed carefully, and the remaining pellet was resuspended by adding 1 mL of incubation media, InvitroGRO KHB, and gently shaking until there were no clumps.
# (§4) Cell viability was determined using the trypan blue method. 25 μL of hepatocyte cell suspension was added to a trypan blue (TB) solution (containing 775 μL InvitroGRO KHB and 200 μL of Trypan Blue). Cell count was taken using a hemacytometer.
# (§5) For mouse hepatocytes, 200 μL of hepatocytes (0.8×10^6 cells/mL) were added to the wells of a 48 well plate (Catalog No. 92048, TPP Techno Plastic Products AG, Trasadingen, Switzerland) and pre-incubated for 30 minutes at 37° C. For rat, dog, monkey, […], 200 μL of hepatocytes (2×10^6 cells/mL) were added to the wells of a 48 well plate (Catalog No. 92048, TPP Techno Plastic Products AG, Trasadingen, Switzerland) and pre-incubated for 30 minutes at 37° C.
# (§6) For all species of hepatocytes, once the pre-incubation period was complete, 200 μL of 2 μM working stock of test compound was added to the wells of the plate, and the plate was vortexed on a Vibramax™ 100 (P/N 544-21200-00, Heidolph Instruments GmbH & Co. KG, Schwabach, Germany) at 500 rpm in a 37° C. CO2 incubator (Model No. 51026280, ThermoFisher Scientific, Waltham, MA, USA). At each time point of 0, 15, 30, 60, 90, and 120 minutes, 50 μL of incubation mixture was precipitated with 200 μL of acetonitrile containing internal standard.
# (§7) At the end of the experiment, the samples were centrifuged at 4000 rpm for 10 minutes. […]
# [4] = system: cryopreserved human hepatocytes; assay: Human Hepatocyte Stability Assay; assay type: in vitro ADME
# Method: as §1, §2, §3, §4, §5, §6, §7
# T1 sequence (Q13422 whole entry): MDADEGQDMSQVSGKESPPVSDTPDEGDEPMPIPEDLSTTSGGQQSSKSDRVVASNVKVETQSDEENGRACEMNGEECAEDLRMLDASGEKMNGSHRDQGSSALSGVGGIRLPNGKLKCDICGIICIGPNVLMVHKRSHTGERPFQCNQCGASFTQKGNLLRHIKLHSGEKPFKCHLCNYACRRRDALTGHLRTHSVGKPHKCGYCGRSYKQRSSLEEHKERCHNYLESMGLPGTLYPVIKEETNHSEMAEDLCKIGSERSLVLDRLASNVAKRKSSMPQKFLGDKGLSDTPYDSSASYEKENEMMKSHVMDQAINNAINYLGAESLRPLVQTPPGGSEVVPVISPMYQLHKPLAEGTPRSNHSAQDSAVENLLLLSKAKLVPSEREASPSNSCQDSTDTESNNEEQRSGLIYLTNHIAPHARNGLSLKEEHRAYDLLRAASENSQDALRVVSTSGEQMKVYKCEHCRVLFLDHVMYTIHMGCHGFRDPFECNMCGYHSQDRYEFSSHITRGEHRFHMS
# T1 sequence (Q96SW2 whole entry): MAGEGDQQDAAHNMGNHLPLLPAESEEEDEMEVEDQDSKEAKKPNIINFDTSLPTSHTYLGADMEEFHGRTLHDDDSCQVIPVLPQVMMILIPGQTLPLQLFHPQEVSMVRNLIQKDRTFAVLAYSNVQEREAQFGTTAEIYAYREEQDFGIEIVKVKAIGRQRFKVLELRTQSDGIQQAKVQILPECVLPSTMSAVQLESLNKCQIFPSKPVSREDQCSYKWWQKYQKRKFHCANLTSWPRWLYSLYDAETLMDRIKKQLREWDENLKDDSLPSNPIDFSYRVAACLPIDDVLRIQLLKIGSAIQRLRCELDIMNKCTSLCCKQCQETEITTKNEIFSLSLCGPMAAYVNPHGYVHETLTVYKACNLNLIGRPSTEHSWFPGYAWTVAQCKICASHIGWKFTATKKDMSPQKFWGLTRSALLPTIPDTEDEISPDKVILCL
# T1 sequence (Q16531 2-1140 partner limits assumed): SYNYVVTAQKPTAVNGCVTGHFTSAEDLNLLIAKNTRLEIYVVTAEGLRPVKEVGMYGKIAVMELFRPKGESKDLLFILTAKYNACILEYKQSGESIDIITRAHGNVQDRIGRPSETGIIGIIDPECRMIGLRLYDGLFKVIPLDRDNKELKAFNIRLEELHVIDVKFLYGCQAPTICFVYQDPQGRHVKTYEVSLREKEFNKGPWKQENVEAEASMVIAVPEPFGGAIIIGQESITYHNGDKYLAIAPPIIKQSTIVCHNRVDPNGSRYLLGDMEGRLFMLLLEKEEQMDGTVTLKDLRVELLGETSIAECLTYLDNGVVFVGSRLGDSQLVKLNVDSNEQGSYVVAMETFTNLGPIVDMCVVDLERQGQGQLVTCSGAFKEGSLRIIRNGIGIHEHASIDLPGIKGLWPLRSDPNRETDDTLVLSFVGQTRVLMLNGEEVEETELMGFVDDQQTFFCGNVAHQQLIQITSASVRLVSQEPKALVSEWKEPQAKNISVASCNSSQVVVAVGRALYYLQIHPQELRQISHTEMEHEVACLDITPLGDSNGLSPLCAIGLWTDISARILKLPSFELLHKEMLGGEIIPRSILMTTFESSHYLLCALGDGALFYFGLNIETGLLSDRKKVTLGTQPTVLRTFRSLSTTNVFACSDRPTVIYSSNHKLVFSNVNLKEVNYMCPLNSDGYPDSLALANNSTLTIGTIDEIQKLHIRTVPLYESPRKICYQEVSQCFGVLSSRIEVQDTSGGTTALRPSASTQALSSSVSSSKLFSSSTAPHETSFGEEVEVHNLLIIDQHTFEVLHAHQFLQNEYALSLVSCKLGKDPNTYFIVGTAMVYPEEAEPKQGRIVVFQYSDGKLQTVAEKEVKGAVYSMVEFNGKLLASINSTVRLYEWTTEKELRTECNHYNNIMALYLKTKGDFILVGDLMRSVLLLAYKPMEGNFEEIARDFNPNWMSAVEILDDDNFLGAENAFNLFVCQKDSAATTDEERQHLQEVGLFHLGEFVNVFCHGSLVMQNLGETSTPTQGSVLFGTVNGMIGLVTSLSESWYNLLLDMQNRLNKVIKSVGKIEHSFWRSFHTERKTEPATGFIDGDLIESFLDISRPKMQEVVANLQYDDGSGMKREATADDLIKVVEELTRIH
smiles,measurement,setting,value
"COc1cc(-c2cn(C)c(=O)c(C)c2C)cc(OC)c1CN1CC[C@H](N2CCN(c3ccc(N[C@H]4CCC(=O)NC4=O)cc3F)CC2)C(F)(F)C1 [Compound 1, (S)-3-((4-(4-((S)-1-(2,6-dimethoxy-4-(1,4,5-trimethyl-6-oxo-1,6-dihydropyridin-3-yl)benzyl)-3,3-difluoropiperidin-4-yl)piperazin-1-yl)-3-fluorophenyl)amino)-piperidine-2,6-dione]","% IKZF1 Remaining Relative to Vehicle Control at 6 hr, Mean",[1]; 0.101 nM,100.8%
same,"% IKZF1 Remaining Relative to Vehicle Control at 6 hr, Mean",[1]; 0.318 nM,106.4%
same,"% IKZF1 Remaining Relative to Vehicle Control at 6 hr, Mean",[1]; 1.01 nM,102.9%
same,"% IKZF1 Remaining Relative to Vehicle Control at 6 hr, Mean",[1]; 3.17 nM,100.4%
same,"% IKZF1 Remaining Relative to Vehicle Control at 6 hr, Mean",[1]; 10.0 nM,98.5%
same,"% IKZF1 Remaining Relative to Vehicle Control at 6 hr, Mean",[1]; 31.7 nM,96.0%
same,"% IKZF1 Remaining Relative to Vehicle Control at 6 hr, Mean",[1]; 100 nM,95.9%
same,"% IKZF1 Remaining Relative to Vehicle Control at 6 hr, Mean",[1]; 317 nM,91.5%
same,"% IKZF1 Remaining Relative to Vehicle Control at 6 hr, Mean",[1]; 1000 nM,93.3%
same,"% IKZF1 Remaining Relative to Vehicle Control at 6 hr, Mean",[1]; 3161 nM,80.8%
same,"% IKZF1 Remaining Relative to Vehicle Control at 6 hr, Mean",[1]; 9990 nM,74.2%
same,degradation of IKZF1,"[1]; 10 μM, 6 hours",25%
same,Emax,"[1]; IKZF1-HiBiT, NCIH929.11 cells, 6 hours, read-out: Mean Emax (%) ± SD",74.2 ± 8.2%
same,effect on degradation of IKZF1,"[1]; concentrations up to 1 μM, 6 hours",no significant effect
same,Comments,"[2]; vapor diffusion, 1,4-Dioxane/50, anti-solvent MTBE/600",Gum-like sample
same,Comments,"[2]; vapor diffusion, 2-MeTHF/120, anti-solvent MTBE/1080",Gum-like sample
same,Comments,"[2]; vapor diffusion, THF/50, anti-solvent MTBE/600",Gum-like sample
same,half-life at 1 µM,[3],> 120 min
same,hepatocyte CLint at 1 µM,[3]; read-out: CL int cells,4.67 µL/min/1e6 cells
same,CLint scaled at 1 µM,[3]; read-out: CL int in vivo,14.4 mL/min/kg
same,CLhb scaled well stirred,[4],8.4 mL/min/kg body wt.
